What is called Tmax is the time at which the peak concentration occurs. The Cmax is the peak of the concentration-time curve.

The text below walks through data of US20210196702A1, “TREATMENT OF HYPERKINETIC MOVEMENT DISORDERS” (Neurocrine Biosciences, Inc., priority 2014, published 2021).

The conditions of data set [1]: cited from earlier work.
Data set [2] is described as follows: NBI-98854 multiple-dose cohort: plasma (+)α-HTBZ on day 8. The note with it: for half-life: read-out: apparent ti (half-life) of plasma concentration decline (converted). It is filed as in vivo, human. The procedure: (§1) Plasma concentrations of (+)α-HTBZ, (+)β-HTBZ, and compounds as disclosed herein may be measured by methods as described in Derangula et al, Biomedical Chromatography 2013 27(6): 792-801, Mehvar et al, […] 1987 15(2): 250-55 and generally by tandem mass spectroscopy.
NBI-98854 was administered orally once daily at a dose of 50 mg or 100 mg for 8 days to patients in a multiple-dose cohort (n=13 for 50 mg dosage group; n=4 for 100 mg dosage group). Individual subject plasma concentration data for (+)α-HTBZ was collected at scheduled times post-dose (0 hr, 2 hr, 4 hr, 6 hr, 8 hr, 12 hr, 16 hr, 24 hr, 48 hr, 96 hr, and 120 hr) on day 8 and presented as mean plasma concentration data (linear scale) (see, FIG. 1). On Day 8, median time to Tmax for (+)α-HTBZ was approximately 4.0 hours for both doses.

Data set [3] in a line: Phase 2 clinical study: week 6 plasma concentration (Cmax ss) of [+]α-HTBZ. It is filed as in vivo. The following applies: human, NBI-98854 25, 50 or 75 mg, TD patients.
Text: as §1
(§2) Observed exposure and Abnormal Involuntary Movement Scale (AIMS) derived from video ratings from a Phase 2 clinical study of (S)-2-amino-3-methyl-butyric acid (2R,3R,11bR)-3-isobutyl-9,10-dimethoxy-1,3,4,6,7,11b-hexahydro-2H-pyrido[2,1-a]isoquinolin-2-yl ester were employed for development of the exposure-response relationship. A total of […] were randomized to placebo (N=41) and (S)-2-amino-3-methyl-butyric acid (2R,3R,11bR)-3-isobutyl-9,10-dimethoxy-1,3,4,6,7,11b-hexahydro-2H-pyrido[2,1-a]isoquinolin-2-yl ester (either 25 mg, 50 mg or 75 mg, N=45). Thirty-eight patients receiving (S)-2-amino-3-methyl-butyric acid (2R,3R,11bR)-3-isobutyl-9,10-dimethoxy-1,3,4,6,7,11b-hexahydro-2H-pyrido[2,1-a]isoquinolin-2-yl ester had PK data available for the metabolite [+]α-dihydrotetrabenazine. […] AIMS derived from video rating was available at baseline and week 6 in each patient. Percent change from baseline at week 6 served as the response metric. [+]α-Dihydrotetrabenazine concentration at week 6 sampled at about the Tmax was available in each patient and this Cmax steady state (ss) was used as the exposure measure.
(§3) The patients who had quantifiable concentrations of [+]α-dihydrotetrabenazine were divided into quartiles based upon the week 6 Cmax ss. The mean Cmax ss and mean AIMS reduction from baseline were calculated for each quartile.

Data set [4] has as its system TD subjects. The experiment in a line: Phase 2 clinical study of NBI-98854: exposure-AIMS (video-rated) analysis. It is filed as in vivo, human. The following applies: for Mean AIMS reduction - % (week 6 vs baseline): regardless of NBI-98854 dose.
Text: Methods for determining the effectiveness of a therapeutic for treating a hyperkinetic disorder are routinely practiced in the art by a person skilled in the medical and clinical arts. By way of example, a subject with a hyperkinetic disorder may be diagnosed, monitored, and evaluated by the Abnormal Involuntary Movement Scale (AIMS). The AIMS is a structured neurological examination that was developed in 1976 and has been used extensively in movement disorder assessments. It consists of seven distinct ratings of regional involuntary body movements that are scored on a zero to four scale with zero being rated as none and four being rated as severe.
as §2, §3

The subject of data set [5] is TD subjects. Put plainly: Tolerability of repeated doses in TD subjects. It is filed as in vivo, human. The note with it: repeated doses from 12.5 mg to 100 mg per day. On the procedure:
Efficacy is related to the concentrations of the active metabolite [+]α-dihydrotetrabenazine. […] Exposures above 60 ng/mL in plasma afford little incremental benefit but increase the risk of adverse events reflecting extension of VMAT2 pharmacology. Exposures below 15 ng/mL are suboptimal across the general TD population.

The subject of another data set is patients exposed to drug. The following applies: patients exposed to metoclopramide (Rao et al 2010); cited from earlier work.
Where [6] appears, read: active metabolite after NBI-98854, TD population.

Read-outs that look alike come from different tables or passages of the source.

For the molecule `COc1cc2c(cc1OC)C1CC(=O)C(CC(C)C)CN1CC2` (centres unmarked) [tetrabenazine, 3-isobutyl-9,10-dimethoxy-1,3,4,6,7,11b-hexahydro-2H-pyrido[2,1-a]isoquinolin-2-one], the “Systemic exposure to parent drug” value in data set [1] (in humans, rapidly metabolized to HTBZ) is “virtually negligible”.
As for `COc1cc2c(cc1OC)[C@H]1C[C@@H](O)[C@H](CC(C)C)CN1CC2` [(+)α-HTBZ, (2R, 3R, 11bR)-3-isobutyl-9,10-dimethoxy-1,3,4,6,7,11b-hexahydro-2H-pyrido[2,1-a]isoquinolin-2-ol], in data set [2] (NBI-98854 50 mg once daily, over a period of about 8 to about 24 hours), the “Plasma concentration maintained above threshold” value is reported as greater than 15 ng/mL. Further, the half-life in data set [2] (human, plasma, po, NBI-98854 50 mg orally once daily) was roughly 21 h; in data set [2] (human, plasma, po, NBI-98854 100 mg orally once daily), roughly 19 h. The Tmax in data set [2] (human, plasma, po, NBI-98854 orally once daily, both doses (50 mg and 100 mg), read-out: median time to Tmax) is roughly 4 h. Also, the maximum concentration (Cmax) in data set [3] (1st quartile by week 6 Cmax ss) is roughly 15 ng/mL; in data set [3] (2nd quartile by week 6 Cmax ss) it was roughly 29 ng/mL; in data set [3] (3rd quartile by week 6 Cmax ss) it was 42 ng/mL; in data set [3] (4th quartile by week 6 Cmax ss), 93 ng/mL. Moreover, the “Appropriate target concentration in plasma (exposure-response analysis)” value in the data set on TD subjects [4] (setting [6]) is given as 30 ng/mL. Besides, the “Plasma exposures affording little incremental benefit but increased risk of adverse events” value in the data set with TD subjects [4] (setting [6]) is “above 60 ng/mL”. In the data set on TD subjects [4] (setting [6]), the “Plasma exposures that are suboptimal across the general TD population” value is “below 15 ng/mL”.
Take `COc1cc2c(cc1OC)[C@H]1C[C@@H](OC(=O)[C@@H](N)C(C)C)[C@H](CC(C)C)CN1CC2` [NBI-98854, (S)-2-amino-3-methyl-butyric acid (2R,3R,11bR)-3-isobutyl-9,10-dimethoxy-1,3,4,6,7,11b-hexahydro-2H-pyrido[2,1-a]isoquinolin-2-yl ester]: the “Mean AIMS reduction - % (week 6 vs baseline)” value in the data set on TD subjects [4] (3rd quartile of [+]α-HTBZ Cmax ss) is given as 65%; with TD subjects [4] (4th quartile of [+]α-HTBZ Cmax ss), 52%. Moreover, in the data set with TD subjects [5], the Tolerability result was “generally well tolerated”.
Turning to `CCN(CC)CCNC(=O)c1cc(Cl)c(N)cc1OC` [metoclopramide], the “Occurrence of drug-induced TD in patients exposed to drug” value with patients exposed to drug is given as less than 1%.
With `COc1cc2c(cc1OC)C1CC(O)C(CC(C)C)CN1CC2` (centres unmarked) [HTBZ, 3-isobutyl-9,10-dimethoxy-1,3,4,6,7,11b-hexahydro-2H-pyrido[2,1-a]isoquinolin-2-ol], the half-life entry in data set [1] (HTBZ formed from tetrabenazine in humans) is recorded as “short”.
